In patent US8394578B2, “Method of forming resist pattern and negative tone-development resist composition” (Tokyo Ohka Kogyo Co., Ltd., priority 2010, dated 2013):

Test: Solubility in organic solvent (Test Example 1)
Format: physicochemical
Settings: monomer, stirred for 1 hour; for degree of dissolution in MEK: 1 g added to MEK at 25° C.; for degree of dissolution in PGME: 1 g added to PGME at 25° C.; for degree of dissolution in PGMEA: 1 g added to PGMEA at 25° C.; for degree of dissolution in Butyl acetate: 1 g added to butyl acetate at 25° C.
Excerpt: Among the monomers used in Polymer Synthesis Examples 1 to 4 and Comparative Polymer Synthesis Examples 1 to 4, with respect to compounds (m0-1) and (m0-2) which are classified as a structural unit (a0), compounds (m2-1) and (m2-2) which are classified as a structural unit (a2), a compound in which the —S(═O)2— portion of the compound (m0-1) has been replaced with —C(═O)— (a compound in which the cyclic group within the compound (m0-1) has been replaced with the cyclic group of the compound (m2-1), hereafter referred to as compound (m2-3)), and polymeric compounds 1, 1′ and 4′, the solubility in an organic solvent was evaluated as follows.
1 g of each compound was added to an organic solvent indicated in Table 1 at 25° C., and stirred for 1 hour. After the stirring, the degree of dissolution of each compound in each organic solvent was evaluated with the following criteria. […]

SMILES | degree of dissolution in MEK | degree of dissolution in PGME | degree of dissolution in PGMEA | degree of dissolution in Butyl acetate
C=C(C)C(=O)OCC(=O)OC1C2CC3C1OS(=O)(=O)C3C2 (stereo not shown) [Compound (m0-1)] | B (15% by weight or more but less than 40% by weight) | C (7% by weight or more but less than 15% by weight) | C (7% by weight or more but less than 15% by weight) | C (7% by weight or more but less than 15% by weight)
C=C(C)C(=O)OC1C2CC3C(=O)OC1C3C2 (stereo not shown) [Compound (m2-1)] | B (15% by weight or more but less than 40% by weight) | C (7% by weight or more but less than 15% by weight) | B (15% by weight or more but less than 40% by weight) | C (7% by weight or more but less than 15% by weight)
C=C(C)C(=O)OC1CCOC1=O (stereo not shown) [Compound (m2-2)] | A (40% by weight or more) | A (40% by weight or more) | A (40% by weight or more) | A (40% by weight or more)
C=C(C)C(=O)OC1C2CC3C1OS(=O)(=O)C3C2 (stereo not shown) [Compound (m0-2)] | B (15% by weight or more but less than 40% by weight) | C (7% by weight or more but less than 15% by weight) | C (7% by weight or more but less than 15% by weight) | D (less than 7% by weight)
